Data set [1] deals with galactitol accumulation in the lenses and sciatic nerves. Description: In vivo lowering of dulcitol (galactitol) accumulation in galactosemic rats. Also noted: species or system rat (male, Sprague-Dawley). The settings on record: for effect on accumulation of galactitol in the lenses and sciatic nerves (in words): rats fed galactose. The text has this: The aldose reductase inhibiting property of the compounds of this invention and the utilization of the compounds in preventing, diminishing and alleviating diabetic complications are demonstrable in experiments using galactosemic rats, see Dvornik et al, cited above. Such experiments are exemplified hereinbelow after the listing of the following general comments pertaining to these experiments:
(a) Four or more groups of six male rats, 50-70 g, Sprague-Dawley strain, were used. The first group, the control group, was fed a mixture of laboratory chow (rodent Laboratory Chow, Purina) and glucose at 20% (w/w %) concentration. The untreated galactosemic group and the drug-treated groups were fed a similar diet in which galactose is substituted for glucose. The test compound was either admixed to the diet or administered by gavage. In experiments involving compound administration in the diet, the average dose administered was calculated from the actual food intake of the animals in each group. The concentration of galactose in the diet of the treated groups was the same as that for the untreated galactosemic group.
(b) After four days, the animals were killed by decapitation. The eyeballs were removed and punctured with a razor blade; the freed lenses were rolled gently on filter paper and weighed. The sciatic nerves were dissected as completely as possible and weighed. Both tissues when frozen can be kept up to two weeks before being analyzed for galactitol.
(c) The polyol determination was performed by a modification of the procedure of M. Kraml and L. Cosyns, Clin. Biochem., 2, 373 (1969). Only two minor reagent changes were made: (a) The rinsing mixture was an aqueous 5% (w/v) trichloroacetic acid solution and (b) the stock solution was prepared by dissolving 25 mg of dulcitol in 100 mL of an aqueous trichloroacetic acid solution. [N.B.: For each experiment the average value found in the tissue from rats fed the glucose diet was subtracted from the individual values found in the corresponding tissue in galactose-fed rats to obtain the amount of polyol accumulated.] The aldose reductase inhibiting effects of the compounds of formula (I) were also tested by employing an in vitro testing procedure similar to that described by S. Hayman and J. H. Kinoshita, J. Biol. Chem., 240, 877 (1965). In the present case the procedure of Hayman and Kinoshita was modified in that the final chromatography step was omitted in the preparation of the enzyme from bovine lens.
The figures under L and N represent the percentage decrease of galactitol accumulation in the tissues of the lens and sciatic nerve, respectively, for treated rats as compared to untreated rats.

Data set [2] concerns the target T1, aldose reductase (Bos taurus, UniProt P16116).
T1 construct: preparation of the enzyme from bovine lens; from tissue; host or cells: bovine lens
Description: In vitro inhibition of aldose reductase from bovine lens (modified Hayman and Kinoshita procedure). The data set is classed as biochemical. Conditions: 10^-7 M; enzyme from bovine lens. The protocol:
Only two minor reagent changes were made: (a) The rinsing mixture was an aqueous 5% (w/v) trichloroacetic acid solution and (b) the stock solution was prepared by dissolving 25 mg of dulcitol in 100 mL of an aqueous trichloroacetic acid solution. [N.B.: For each experiment the average value found in the tissue from rats fed the glucose diet was subtracted from the individual values found in the corresponding tissue in galactose-fed rats to obtain the amount of polyol accumulated.] […] In the present case the procedure of Hayman and Kinoshita was modified in that the final chromatography step was omitted in the preparation of the enzyme from bovine lens.

The nature of data set [3]: Metabolites of tolrestat found in humans and other mammals. The data set is classed as in vivo.
Setting [4] is: lens, 50 mg/kg/day, gavage (same experiment), four days.
The mark [5] stands for this setting: sciatic nerve, 50 mg/kg/day, gavage (same experiment), four days.

The record followed here is patent US4734435A, “N-[[6-methoxy-5-(trifluoromethyl)-1-naphthalenyl]-thioxome thyl]-N-methylglycine S-oxide and the amide thereof” (American Home Products Corp., priority 1986, dated 1988).

The structures appear in SMILES notation.

As for `COc1ccc2c(C(=S=O)N(C)CC(N)=O)cccc2c1C(F)(F)F` [[[[6-Methoxy-5-(trifluoromethyl)-1-naphthalenyl]thioxomethyl]methylamino]-acetamide S-oxide], the “% lowering dulcitol accumulation in vivo, L (lens)” value in data set [1] (58 mg/kg/day, 96 h) came out at 0%; in data set [1] (lens, 12 mg/kg/day, mode of administration not given, four days), 0%. The “% lowering dulcitol accumulation in vivo, N (sciatic nerve)” value came out at 77% in data set [1] (58 mg/kg/day, 96 h) and 45% in data set [1] (sciatic nerve, 12 mg/kg/day, mode of administration not given, four days). Moreover, in data set [1] (at a dose of 58 mg/kg/day), the “comparison with tolrestat at 10 mg/kg/day (in words)” value was “comparable results”. In data set [1], the “effect on accumulation of galactitol in the lenses and sciatic nerves (in words)” value was “diminish the accumulation of galactitol in the lenses and sciatic nerves of rats fed galactose”. For the same compound, 0.1 µM produced 3% inhibition in data set [2].

As to `COc1ccc2c(C(=S)N(C)CC(=O)O)cccc2c1C(F)(F)F` [tolrestat, N-[[6-methoxy-5-(trifluoromethyl)-1-naphthalenyl]thioxomethyl]-N-methylglycine, reference compound], the “% lowering dulcitol accumulation in vivo, L (lens)” value in data set [1] (lens, 10 mg/kg/day, gavage (same experiment), four days) came out at 0%. Moreover, the “% lowering dulcitol accumulation in vivo, N (sciatic nerve)” value in data set [1] (sciatic nerve, 10 mg/kg/day, gavage (same experiment), four days) is reported as 81%.

Regarding `COc1ccc2c(C(=O)N(C)CC(=O)O)cccc2c1C(F)(F)F` [N--[[6-methoxy-5-(trifluoromethyl)-1-naphthalenyl]carbonyl]-N--methylglycine, reference compound], the “% lowering dulcitol accumulation in vivo, L (lens)” value in data set [1] (setting [4]) is listed as 0%. Moreover, in data set [1] (setting [5]), the “% lowering dulcitol accumulation in vivo, N (sciatic nerve)” value worked out at 59%.

Turning to `COc1ccc2c(C(=S=O)N(C)CC(=O)O)cccc2c1C(F)(F)F` [N-[[6-Methoxy-5-(trifluoromethyl)-1-naphthalenyl]thioxomethyl]-N-methylglycine S-oxide], the “occurrence as metabolite of tolrestat (in words)” value in data set [3] was “one of the metabolites of tolrestat found in humans and other mammals”. Besides, in data set [1] (at a dose of 50 mg/kg/day), the “comparison with tolrestat at 10 mg/kg/day (in words)” value is reported as “comparable results”. Besides, the “% lowering dulcitol accumulation in vivo, L (lens)” value in data set [1] (lens, 20 mg/kg/day, diet, four days) is 0%; in data set [1] (setting [4]), 0%; in data set [1] (lens, 115 mg/kg/day, diet, four days), 20%. Moreover, in data set [1], the “effect on accumulation of galactitol in the lenses and sciatic nerves (in words)” value was “diminish the accumulation of galactitol in the lenses and sciatic nerves of rats fed galactose”. For the same compound, the “% lowering dulcitol accumulation in vivo, N (sciatic nerve)” value in data set [1] (sciatic nerve, 20 mg/kg/day, diet, four days) worked out at 45%; in data set [1] (setting [5]), 70%; in data set [1] (sciatic nerve, 115 mg/kg/day, diet, four days) it was 100%. For the same compound, testing at 0.1 µM in data set [2] gave an inhibition of 80%.
